Measurements as given in article PMC6925656 (Clinical pharmacology and therapeutics, 2019).
One block for each compound: values may come before it.

Tests used:
human OCT1 [1] = target: T1, human OCT1 (Homo sapiens, UniProt O15245); test: Uptake into OCT1-expressing or nonexpressing Xenopus laevis oocytes
T1 sequence (O15245 1-554): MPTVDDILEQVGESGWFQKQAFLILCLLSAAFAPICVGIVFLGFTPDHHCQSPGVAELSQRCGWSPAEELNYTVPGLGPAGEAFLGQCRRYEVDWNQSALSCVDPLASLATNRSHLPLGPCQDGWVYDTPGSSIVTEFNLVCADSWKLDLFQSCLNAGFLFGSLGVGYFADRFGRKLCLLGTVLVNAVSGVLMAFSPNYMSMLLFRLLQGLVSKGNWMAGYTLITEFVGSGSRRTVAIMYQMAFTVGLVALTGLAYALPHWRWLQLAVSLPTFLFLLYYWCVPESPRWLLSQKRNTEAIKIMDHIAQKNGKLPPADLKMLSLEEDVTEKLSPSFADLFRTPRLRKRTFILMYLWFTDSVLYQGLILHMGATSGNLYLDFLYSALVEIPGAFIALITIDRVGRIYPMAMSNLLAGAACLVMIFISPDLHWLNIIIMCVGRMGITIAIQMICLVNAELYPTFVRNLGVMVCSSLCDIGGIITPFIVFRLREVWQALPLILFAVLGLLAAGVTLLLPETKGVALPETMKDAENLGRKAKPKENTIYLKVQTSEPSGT

Huh7 cells = test: Uptake into Huh7 liver cancer cells; format: in vitro ADME, human
HepG2 cells = test: Uptake into HepG2 liver cancer cells; format: in vitro ADME, human
human OCT1 [2] = target: T1, human OCT1; test: Uptake into HEK293 cells expressing human OCT1
HeLa cells = test: Sorafenib uptake and membrane binding in HeLa cells; format: in vitro ADME; conditions: for Interference with non-specific membrane binding of sorafenib: isolated membrane fraction
Oct1 [3] = test: Pharmacokinetics in Oct1-deficient versus wild-type mice; conditions: for Pharmacokinetic parameters, Oct1-deficient vs wild-type mice: sorafenib single oral dose 10 mg/kg, plasma
hOATP2B1 = target: T2, hOATP2B1 (Homo sapiens, UniProt O94956); test: Sorafenib uptake by HEK cells overexpressing hOATP2B1; format: in vitro ADME; conditions: Figure S4
T2 sequence (O94956 1-709): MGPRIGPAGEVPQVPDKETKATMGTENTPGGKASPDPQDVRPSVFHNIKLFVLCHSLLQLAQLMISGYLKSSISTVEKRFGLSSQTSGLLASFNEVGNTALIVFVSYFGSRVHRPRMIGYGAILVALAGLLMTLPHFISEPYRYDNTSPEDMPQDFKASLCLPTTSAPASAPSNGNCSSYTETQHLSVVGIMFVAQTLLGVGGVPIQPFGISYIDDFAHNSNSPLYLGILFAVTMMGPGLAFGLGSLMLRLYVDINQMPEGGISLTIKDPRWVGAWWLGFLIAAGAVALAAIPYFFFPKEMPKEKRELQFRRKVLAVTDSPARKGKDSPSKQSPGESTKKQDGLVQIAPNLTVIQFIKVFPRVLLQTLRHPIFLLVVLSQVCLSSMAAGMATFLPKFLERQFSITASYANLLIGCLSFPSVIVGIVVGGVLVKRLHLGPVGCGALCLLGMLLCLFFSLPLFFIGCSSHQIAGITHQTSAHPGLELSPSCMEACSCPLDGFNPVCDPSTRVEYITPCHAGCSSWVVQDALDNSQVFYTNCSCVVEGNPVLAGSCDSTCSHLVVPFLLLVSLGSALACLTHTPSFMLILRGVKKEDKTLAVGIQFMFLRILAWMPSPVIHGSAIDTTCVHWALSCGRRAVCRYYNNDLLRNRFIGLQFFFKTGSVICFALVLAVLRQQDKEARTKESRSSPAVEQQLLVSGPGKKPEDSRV

human OCT3 = target: T3, human OCT3 (Homo sapiens, UniProt O75751); test: Sorafenib transport in HEK293 cells overexpressing human OCT3; format: in vitro ADME; conditions: HEK293 cells overexpressing human OCT3, Figure S1
T3 sequence (O75751 1-556): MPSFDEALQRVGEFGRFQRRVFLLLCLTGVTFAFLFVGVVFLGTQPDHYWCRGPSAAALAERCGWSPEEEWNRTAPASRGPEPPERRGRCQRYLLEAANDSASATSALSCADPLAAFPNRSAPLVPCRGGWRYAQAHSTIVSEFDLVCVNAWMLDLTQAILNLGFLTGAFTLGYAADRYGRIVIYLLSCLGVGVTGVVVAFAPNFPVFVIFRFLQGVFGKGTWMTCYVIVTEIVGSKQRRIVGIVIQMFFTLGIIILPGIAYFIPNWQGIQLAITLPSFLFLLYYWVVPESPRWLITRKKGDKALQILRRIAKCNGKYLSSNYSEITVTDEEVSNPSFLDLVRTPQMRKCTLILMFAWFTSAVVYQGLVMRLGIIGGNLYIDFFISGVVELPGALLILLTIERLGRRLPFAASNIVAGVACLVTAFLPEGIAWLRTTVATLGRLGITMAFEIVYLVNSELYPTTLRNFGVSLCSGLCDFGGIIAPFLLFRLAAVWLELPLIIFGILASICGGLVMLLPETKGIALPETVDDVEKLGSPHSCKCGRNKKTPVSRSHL

OCT1 [4] = conditions: cited from earlier work
p38α = conditions: cited from earlier work
p38α (MAPK14) = p38α (MAPK14) (Homo sapiens, UniProt Q16539); conditions: live HEK293 cells, 60 min; BIRB796 5 nM, sorafenib 5 μM; DMSO 44.3 °C
[5] = cited from earlier work
OATP2B1 = target: T4, OATP2B1 (Mus musculus, UniProt Q8BXB6); test: Sorafenib pharmacokinetics in OATP2B1-deficient mice; format: in vivo; conditions: Figure S4
T4 sequence (Q8BXB6 1-683): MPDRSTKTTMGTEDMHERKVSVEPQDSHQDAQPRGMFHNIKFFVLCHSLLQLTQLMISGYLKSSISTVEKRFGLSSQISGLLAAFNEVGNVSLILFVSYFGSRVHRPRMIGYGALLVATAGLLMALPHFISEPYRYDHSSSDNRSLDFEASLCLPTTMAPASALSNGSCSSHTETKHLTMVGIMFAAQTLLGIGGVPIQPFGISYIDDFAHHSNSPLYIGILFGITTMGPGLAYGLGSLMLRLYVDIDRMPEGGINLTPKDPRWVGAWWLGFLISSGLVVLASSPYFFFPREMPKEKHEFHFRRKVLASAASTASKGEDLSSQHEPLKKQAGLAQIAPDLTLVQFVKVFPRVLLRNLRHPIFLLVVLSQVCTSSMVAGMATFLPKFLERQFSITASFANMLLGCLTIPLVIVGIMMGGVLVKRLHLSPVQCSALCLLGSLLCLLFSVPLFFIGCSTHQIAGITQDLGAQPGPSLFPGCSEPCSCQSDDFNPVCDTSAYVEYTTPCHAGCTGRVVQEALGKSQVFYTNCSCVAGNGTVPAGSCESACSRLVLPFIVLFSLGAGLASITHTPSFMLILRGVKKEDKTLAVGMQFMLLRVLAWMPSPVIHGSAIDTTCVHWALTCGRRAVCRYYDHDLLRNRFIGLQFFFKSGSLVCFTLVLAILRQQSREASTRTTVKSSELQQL

mOATP2B1 = target: T5, mOATP2B1 (Mus musculus, UniProt Q8BXB6); test: Sorafenib uptake by HEK cells overexpressing mOATP2B1; format: in vitro ADME; conditions: Figure S4
T5 sequence (Q8BXB6 1-683): T4 sequence (Q8BXB6 1-683)

human OCT2 = human OCT2 (Homo sapiens, UniProt O15244); conditions: HEK293 cells overexpressing human OCT2, Figure S1
Chain of human OCT2 (O15244 whole entry): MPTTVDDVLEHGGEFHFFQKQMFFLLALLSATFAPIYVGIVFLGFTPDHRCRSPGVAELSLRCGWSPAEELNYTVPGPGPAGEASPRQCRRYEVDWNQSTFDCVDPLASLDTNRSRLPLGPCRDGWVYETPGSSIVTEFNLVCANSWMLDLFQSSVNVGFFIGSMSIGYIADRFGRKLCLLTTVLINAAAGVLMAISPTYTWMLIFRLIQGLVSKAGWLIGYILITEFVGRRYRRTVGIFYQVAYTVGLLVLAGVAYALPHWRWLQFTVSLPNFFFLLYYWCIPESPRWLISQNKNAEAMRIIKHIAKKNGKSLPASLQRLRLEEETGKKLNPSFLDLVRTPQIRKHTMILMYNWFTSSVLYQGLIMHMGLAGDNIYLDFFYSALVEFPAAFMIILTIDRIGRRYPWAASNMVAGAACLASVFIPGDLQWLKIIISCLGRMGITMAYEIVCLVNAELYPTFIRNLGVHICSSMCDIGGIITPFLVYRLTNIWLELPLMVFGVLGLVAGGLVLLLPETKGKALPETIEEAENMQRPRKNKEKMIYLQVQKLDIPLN

Chain of p38α (MAPK14) (Q16539 whole entry): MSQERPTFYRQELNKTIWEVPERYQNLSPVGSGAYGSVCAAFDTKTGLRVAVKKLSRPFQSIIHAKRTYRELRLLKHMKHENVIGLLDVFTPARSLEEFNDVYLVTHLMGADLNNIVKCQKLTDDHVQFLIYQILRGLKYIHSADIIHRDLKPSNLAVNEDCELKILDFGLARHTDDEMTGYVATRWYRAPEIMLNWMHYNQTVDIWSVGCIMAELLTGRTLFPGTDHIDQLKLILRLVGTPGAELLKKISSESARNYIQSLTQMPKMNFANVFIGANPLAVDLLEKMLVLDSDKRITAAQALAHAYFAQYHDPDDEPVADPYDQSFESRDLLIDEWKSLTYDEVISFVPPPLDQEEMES

Compound: C[n+]1ccc(-c2ccccc2)cc1 [MPP]
- Increase of MPP uptake, OCT1 present vs absent (human OCT1 [1]; MPP 1 μM, 20 min): 13 fold
- Uptake of MPP into oocytes in the presence of OCT1 (human OCT1 [1]; MPP 1 μM, 20 min, OCT1-expressing oocytes): 2.1 pmol/oocyte/20 min
- Uptake of MPP into oocytes in the absence of OCT1 (human OCT1 [1]; MPP 1 μM, 20 min, nonexpressing oocytes): 0.16 pmol/oocyte/20 min
- Effect of excess MPP on OCT1-mediated MPP uptake (human OCT1 [1]; […] MPP as inhibitor, 1 μM MPP as substrate): completely blocked

Compound: CC[N+](CC)(CC)CC [TEA]
- TEA uptake compared to HEK293-OCT1 cells (Huh7 cells; Huh7, TEA 100 μM, 10 min): did not take up appreciable levels
- TEA uptake compared to HEK293-OCT1 cells (HepG2 cells; HepG2, TEA 100 μM, 10 min): did not take up appreciable levels
- Increase of TEA uptake in HEK293-OCT1 vs HEK293-VC cells (human OCT1 [2]; TEA 100 μM, 10 min): 23.5±1.2 fold

- Effect of inhibitor on sorafenib uptake in HEK293-OCT1 and HEK293-VC cells (human OCT1 [2]; decynium22 5 μM, sorafenib 0.2 μM, 10 min): decreased sorafenib uptake
- Effect of inhibitor on TEA uptake in OCT1 transfectants (human OCT1 [2]; probe substrate TEA, OCT1-transfected HEK293 cells): almost completely abolished
Compound: CCN1/C(=C/c2ccc3ccccc3[n+]2CC)C=Cc2ccccc21.[I-] [decynium22]
- Interference with non-specific membrane binding of sorafenib (HeLa cells; HeLa cells): neither inhibitor interfered

Compound: CNC(=O)c1cc(Oc2ccc(NC(=O)Nc3ccc(Cl)c(C(F)(F)F)c3)cc2)cc[n+]1[O-] [sorafenib-N-oxide]
- Hepatic levels (Oct1 [3]; sorafenib 10 mg/kg oral, 7.5 h, data not shown): below the lower limit of quantification
- Pharmacokinetic parameters, Oct1-deficient vs wild-type mice (Oct1 [3]): minimal difference
- Transport of sorafenib-N-oxide by OCT1 (human OCT1 [2]; 1 μM, HEK293 cells expressing VC or OCT1, time-dependent uptake): not transported by OCT1

Compound: CNC(=O)c1cc(Oc2ccc(NC(=O)Nc3ccc(Cl)c(C(F)(F)F)c3)cc2)ccn1 [sorafenib]
- Sorafenib uptake, HEK-VC vs hOATP2B1-overexpressing HEK cells (hOATP2B1): did not detect a different sorafenib uptake
- Transport of sorafenib by OCT3 (human OCT3): do not transport sorafenib
- Inhibition of the transport of known OCT1 substrates (OCT1 [4]): poor inhibitor
- IC50 (p38α): 38 nM
- Apparent aggregation temperature of p38α (p38α (MAPK14)): 54.5 °C
- Characteristics of intracellular accumulation of sorafenib (Huh7 cells; Huh7): saturable, increased over time, and was found to be temperature-dependent
- Fraction of dose found in urine [5]: About 19%
- Liver concentrations, Oct1-deficient vs wild-type mice (Oct1 [3]; sorafenib 10 mg/kg oral, 7.5 h): no significant differences
- Pharmacokinetic parameters, Oct1-deficient vs wild-type mice (Oct1 [3]): minimal difference
- Effect of OATP2B1 deficiency in mice on sorafenib pharmacokinetics (OATP2B1): did not detect
- Sorafenib uptake, HEK-VC vs mOATP2B1-overexpressing HEK cells (mOATP2B1): did not detect a different sorafenib uptake
- Transport of sorafenib by OCT2 (human OCT2): do not transport sorafenib
- Apparent cellular uptake of sorafenib (HeLa cells; HeLa cells, sorafenib 0.2 μM, 10-min incubation): > 800 pmol/mg protein
- Non-specific binding to cell membranes, share of total cell-associated drug (HeLa cells; confirms earlier observation of ref 25): up to 70%
- Characteristics of intracellular accumulation of sorafenib (HepG2 cells; HepG2): saturable, increased over time, and was found to be temperature-dependent
- Sorafenib uptake, HEK293-OCT1 vs HEK293-VC cells (human OCT1 [2]; sorafenib 0.2 μM, 10 min): no difference
- Sorafenib transport at 4 °C compared with 37 °C (human OCT1 [2]; sorafenib 7.5 μM, HEK293 cells, independently of OCT1): reduced
- Time at which sorafenib uptake reaches a plateau (human OCT1 [2]; sorafenib 7.5 μM, both HEK293-OCT1 and HEK293-VC cells): about 10 min
- Sorafenib uptake, OCT1-expressing vs nonexpressing oocytes (human OCT1 [1]; sorafenib 2 μM, 20 min, absence or presence of MPP […]): not different

Compound: cyclosporin A
- Interference with non-specific membrane binding of sorafenib (HeLa cells; HeLa cells): neither inhibitor interfered
